# Measurements as given in patent publication US11685739B2, “High penetration drugs and their compositions thereof for treatment of Parkinson diseases” (TECHFIELDS PHARMA CO., LTD, priority 2013, dated 2023).
# Counter-ions that a name gives are not always drawn. Like-named read-outs stand apart in the source and are kept apart here.
# Details: human, pH 7.4
The cumulative amount of test compounds (1 h),The cumulative amount of test compounds (2 h),The cumulative amount of test compounds (4 h),The cumulative amount of test compounds (8 h),SMILES
0.58 mg,1.15 mg,2.33 mg,4.71 mg,"CCC(CC)OC(=O)[C@H](Cc1ccc(OC(=O)c2ccccc2)c(OC(=O)c2ccccc2)c1)NC(=O)C1CCCN1 (stereo partly drawn) [Compound-17, 4-((2S)-3-oxo-3-(pentan-3-yloxy)-2-(pyrrolidine-2-carboxamido)propyl)-1,2-phenylene dibenzoate hydrofluoride]"
0.67 mg,1.33 mg,2.67 mg,5.25 mg,"CNCC(=O)NCCc1ccc(OC(=O)c2ccccc2)c(OC(=O)c2ccccc2)c1.Cl [Compound-1, 4-(2-(2-(methylamino)acetamido)ethyl)-1,2,-phenylene dibenzoate hydrochloride]"
0.52 mg,1.03 mg,2.10 mg,4.19 mg,"CC(C)OC(=O)[C@H](Cc1ccc(OC(=O)c2ccccc2)c(OC(=O)c2ccccc2)c1)NC(=O)C1CCNCC1 [Compound-18, (S)-4-(3-isopropoxy-3-oxo-2-(piperidine-4-carboxamido)propyl)-1,2-phenylene dibenzoate hydrochloride]"
0.45 mg,0.89 mg,1.78 mg,3.61 mg,"CC(C)OC(=O)[C@H](Cc1ccc(OC(=O)c2ccccc2)c(OC(=O)c2ccccc2)c1)NC(=O)OC1CCN2CCCCC12 (stereo partly drawn) [Compound-22, 4-((2S)-3-isopropoxy-2-((((octahydroindolizin-1-yl)oxy)carbonyl)amino)-3-oxopropyl)-1,2-phenylene dibenzoate acetate]"
0.001 mg,0.001 mg,0.002 mg,0.003 mg,"CC(C(=O)O)c1cccc(Oc2ccccc2)c1 (stereo not drawn) [Compound-34, 2-(3-phenoxyphenyl) propionic acid, reference compound]"
0.001 mg,0.001 mg,0.002 mg,0.003 mg,"CC(=O)Oc1ccccc1C(=O)O [Compound-32, acetylsalicylic acid, reference compound]"
0.59 mg,1.21 mg,2.45 mg,4.93 mg,"Cl.NC(Cc1ccccc1)C(=O)NCCc1ccc(OC(=O)c2ccccc2)c(OC(=O)c2ccccc2)c1 (stereo not drawn) [Compound-4, 4-(2-(2-amino-3-phenylpropanamido)ethyl)-1,2,-phenylene dibenzoate hydrochloride]"
1.15 mg,2.31 mg,4.58 mg,9.22 mg,"CC(C(=O)OCCN(C)C)c1cccc(Oc2ccccc2)c1.Cl (stereo not drawn) [Compound-25, 2-(dimethylamino)ethyl 2-(3-phenoxyphenyl) propionate.hydrochloride]"
0.56 mg,1.13 mg,2.23 mg,4.49 mg,CC(C)OC(=O)[C@H](Cc1ccc(OC(=O)c2ccccc2)c(OC(=O)c2ccccc2)c1)NC(=O)CN.Cl [Compound-16]
0.60 mg,1.21 mg,2.44 mg,4.82 mg,"CCOC(=O)[C@@H](N)Cc1ccc(OC(C)=O)c(OC(C)=O)c1.Cl [Compound-14, (S)-4-(2-amino-3-ethoxy-3-oxopropyl)-1,2-phenylene diacetate hydrochloride]"
0.85 mg,1.69 mg,3.38 mg,6.85 mg,"CCN(CC)CCOC(=O)c1ccccc1Nc1c(Cl)ccc(C)c1Cl [Compound-23, 2-(diethylamino)ethyl 2-[(2,6-dichloro-3-methylphenyl)amino]benzoate.acetate]"
1.17 mg,2.33 mg,4.65 mg,9.31 mg,CC(C(=O)SCCN(C)C)c1cccc(Oc2ccccc2)c1.Cl (stereo not drawn) [Compound-26]
0.61 mg,1.23 mg,2.49 mg,5.01 mg,"Br.CNCC(=O)OC(C)OC(=O)NCCc1ccc(OC(=O)c2ccccc2)c(OC(=O)c2ccccc2)c1 (stereo not drawn) [Compound-3, 4-(6-methyl-4,8-dioxo-5,7-dioxa-2,9-diazadecan-11-yl)-1,2,-phenylene dibenzoate hydrobromide]"

# Continued, compound first:
SMILES,The cumulative amount of test compounds (1 h),The cumulative amount of test compounds (2 h),The cumulative amount of test compounds (4 h),The cumulative amount of test compounds (8 h)
"CC(C)OC(=O)[C@H](Cc1ccc(OC(=O)C(C)C)c(OC(=O)C(C)C)c1)NC(=O)C1CCN2CCCCC2C1.Cl (stereo partly drawn) [Compound-19, 4-((2S)-3-isopropoxy-3-2-(octahydro-1H-quinolizine-2-carboxamido)-3-oxopropyl)-1,2-phenylene bis(2-methylpropanoate) hydrochloride]",0.48 mg,0.98 mg,2.02 mg,4.09 mg
"CCN(CC)CCOC(=O)C(C)c1ccc(CC(C)C)cc1.Cl (stereo not drawn) [Compound-28, 2-(diethylamino)ethyl 2-(4-isobutylphenyl)propionate hydrochloride]",1.15 mg,2.28 mg,4.57 mg,9.19 mg
CCC(CC)C(=O)Oc1ccc(CCNC(=O)C2CCNCC2)cc1OC(=O)C(CC)CC.Cl [Compound-6],0.63 mg,1.25 mg,2.53 mg,5.03 mg
"CC(OC(=O)NCCc1ccc2c(c1)OC(=O)CC(N)C(=O)O2)OC(=O)C(C)C (stereo not drawn) [Compound-8b, 1-(((2-(3-amino-2,5-dioxo-2,3,4,5-tetrahydrobenzo[b][1,4]dioxocin-8-yl)ethyl)carbamoyl)oxy)ethyl isobutyrate hydrofluoride]",0.62 mg,1.24 mg,2.47 mg,4.85 mg
"CCOC(=O)NCCc1ccc(OC(=O)CNC)c(OC(=O)c2ccccc2)c1 [Compound-9b, 5-(2-((ethoxycarbonyl)amino)ethyl)-2-(2-methylamino)acetoxy)phenyl benzoate hydrochloride]",0.62 mg,1.26 mg,2.48 mg,4.95 mg
CCN(CC)CCOC(=O)CC1=C(C)/C(=C/c2ccc([S+](C)[O-])cc2)c2ccc(F)cc21 (stereo not drawn) [Compound-24],0.87 mg,1.79 mg,3.53 mg,7.15 mg
"CC(C)OC(=O)[C@H](Cc1ccc2c(c1)OC(=O)C(N)CC(=O)O2)NC(=O)OC(C)OC(=O)C(C)C (stereo partly drawn) [Compound-20(b), (2S)-isopropyl 3-(4-amino-2,5-dioxo-2,3,4,5-tetrahydrobenzo[b][1,4]dioxocin-8-yl)-2-(((1-(isobutyryloxy)ethoxy)carbonyl)amino)propanoate hydrobromide]",0.43 mg,0.85 mg,1.78 mg,3.52 mg
"CC(C)OC(=O)[C@H](Cc1ccc2c(c1)OC(=O)CC(N)C(=O)O2)NC(=O)OC(C)OC(=O)C(C)C (stereo partly drawn) [Compound-20(a), (2S)-isopropyl 3-(3-amino-2,5-dioxo-2,3,4,5-tetrahydrobenzo[b][1,4]dioxocin-8-yl)-2-(((1-(isobutyryloxy)ethoxy)carbonyl)amino)propanoate hydrobromide]",0.42 mg,0.88 mg,1.75 mg,3.49 mg
"CC(OC(=O)NCCc1ccc2c(c1)OC(=O)C(N)CC(=O)O2)OC(=O)C(C)C (stereo not drawn) [Compound-8a, 1-(((2-(4-amino-2,5-dioxo-2,3,4,5-tetrahydrobenzo[b][1,4]dioxocin-8-yl)ethyl)carbamoyl)oxy)ethyl isobutyrate hydrofluoride]",0.63 mg,1.22 mg,2.43 mg,4.83 mg
"CCC(CC)C(=O)Oc1ccc(CCNC(=O)OC2CCC3CCCCN3C2)cc1OC(=O)C(CC)CC (stereo not drawn) [Compound-7, 4-(2-((((-octahydro-1H-quinolizin-3-yl)oxy)carbonyl)amino)ethyl)-1,2,-phenylene bis(2-ethylbutanoate) acetate]",0.64 mg,1.27 mg,2.57 mg,5.05 mg
"CNCC(=O)Oc1ccc(C[C@H](NC(=O)OC(C)OC(=O)C(C)C)C(=O)OC(C)C)cc1OC(=O)c1ccccc1 (stereo partly drawn) [Compound-21(a), 5-((2S)-2-(((1-(isobutyryloxy)ethoxy)carbonyl)amino-3-isopropoxy-3-oxopropyl)-2-(2-(methylamino)acetoxy)phenyl benzoate hydrochloride]",0.52 mg,1.08 mg,2.17 mg,4.37 mg
